Source: the RepoRT retention time repository (doi:10.1016/j.chroma.2015.03.063)

How the values were obtained:
[1] = RP, Thermo Scientific Accucore C18, 150 × 2.1 mm, 2.6 µm, 24 °C, 0.28 mL/min, estimated dead time 0.83 min; A: 90% water + 10% acetonitrile + 10 mM ammonium acetate; B: 20% water + 80% methanol + 10 mM ammonium acetate; gradient (min/%B) 0/0 2.5/0 7.5/30 12.5/30 15/40 20/100 27.5/100; conditions: stereoisomer not certain
[2] = Agilent ZORBAX Eclipse Plus C18, 100 × 2.1 mm, 1.8 µm, 25 °C, 0.3 mL/min, estimated dead time 0.73 min; A: water + 0.1% acetic acid; B: methanol; gradient (min/%B) 0/5 6/20 13/35 18/50 24/65 30/90 40/90; conditions: stereoisomer not certain

LC retention time [1] [min]	LC retention time [2] [min]	Structure (SMILES)
9.01		CC(=O)CC(c1ccccc1)c1c(O)c2ccccc2oc1=O (configuration not stated)
10.2		CC(C)NCC(O)COc1ccc(CCOCC2CC2)cc1 (configuration not stated)
	3.34	O=C(O)c1cccnc1
8.74		CCCN(CCC)S(=O)(=O)c1ccc(C(=O)O)cc1
8.05		CC(C(=O)O)c1cccc(C(=O)c2ccccc2)c1 (configuration not stated)
8.86		CC(C)NCC(O)COc1ccc(COCCOC(C)C)cc1 (configuration not stated)
7.62		COc1ccc(CC(C)NCC(O)c2ccc(O)c(NC=O)c2)cc1.COc1ccc(CC(C)NCC(O)c2ccc(O)c(NC=O)c2)cc1.O=C(O)C=CC(=O)O (configuration not stated)
9.34		CC12C=CC(=O)C=C1CCC1C2C(O)CC2(C)C1CCC2(O)C(=O)CO (configuration not stated)
	9.87	COc1cc(C(=O)O)cc(OC)c1O
	11.6	CC1OC(OCC2OC(Oc3c(-c4ccc(O)c(O)c4)oc4cc(O)cc(O)c4c3=O)C(O)C(O)C2O)C(O)C(O)C1O (configuration not stated)
18.6		C#CC1(O)CCC2C3C(C)CC4=C(CCC(=O)C4)C3CCC21C (configuration not stated)
	1.88	NCCCCC(N)C(=O)O (configuration not stated)
12.7		CC1(C)OC2CC3C4CCC5=CC(=O)C=CC5(C)C4C(O)CC3(C)C2(C(=O)CO)O1 (configuration not stated)
	23.6	COc1ccc(-c2coc3cc(O)ccc3c2=O)cc1O
8.57		C=CCOc1ccccc1OCC(O)CNC(C)C (configuration not stated)
17.9		Cc1ccc(C)c(OCCCC(C)(C)C(=O)O)c1
8.1		COC(=O)CCc1ccc(OCC(O)CNC(C)C)cc1 (configuration not stated)
9.25		CCCCNc1cc(C(=O)O)cc(S(N)(=O)=O)c1Oc1ccccc1
17		OCc1cc(C(O)CNCCCCCCOCCCCc2ccccc2)ccc1O (configuration not stated)
6.44		COc1cc(Cc2cnc(N)nc2N)cc(OC)c1OC
	2.05	NC(N)=NCCCC(N)C(=O)O (configuration not stated)
	8.99	O=C(C=Cc1ccc(O)c(O)c1)OC1CC(O)(C(=O)O)CC(O)C1O (configuration not stated)
	2.4	OCC1OC(OC2(CO)OC(CO)C(O)C2O)C(O)C(O)C1O (configuration not stated)
	2.12	CC(O)C(N)C(=O)O (configuration not stated)

LC retention time [1] [min]	LC retention time [2] [min]	Structure (SMILES)
	2.8	C[N+](C)(C)CC(=O)[O-]
	4.67	CCC(C)C(N)C(=O)O (configuration not stated)
	3.21	CSCCC(N)C(=O)O (configuration not stated)
4.22		CC(C)(C)NCC(O)COc1cccc2c1CCC(=O)N2 (configuration not stated)
	13.9	COC(=O)C1=COC(OC2OC(CO)C(O)C(O)C2O)C2C(CO)=CCC12 (configuration not stated)
	22.7	CCCCC=CC=CC=O
10.1		C=CCc1ccccc1OCC(O)CNC(C)C (configuration not stated)
11		CC1CC2C(C(O)CC3(C)C2CCC3(O)C(=O)CO)C2(C)C=CC(=O)C=C12 (configuration not stated)
7.13		CNC(C)CCC=C(C)C (configuration not stated)
	7.09	O=Cc1ccc(CO)o1
	32.2	CC(C)(O)C1CCC(C)(C2C(O)CC3(C)C4CC(OC5OC(CO)C(O)C(O)C5O)C5C(C)(C)C(OC6OCC(O)C(O)C6O)CCC56CC46CCC23C)O1 (configuration not stated)
	4.2	O=c1cc[nH]c(=O)[nH]1
9.34		CC12CCC(=O)C=C1CCC1C2C(=O)CC2(C)C1CCC2(O)C(=O)CO (configuration not stated)
9.86		CC(C)NCC(O)COc1cccc2ccccc12 (configuration not stated)
	5.02	CC(C)CC(N)C(=O)O (configuration not stated)
17.2		CS(=O)(=O)Nc1ccc([N+](=O)[O-])cc1Oc1ccccc1
13		Cc1cccc(Nc2ccccc2C(=O)O)c1C
17.2		COC(=O)C1=C(C)NC(C)=C(C(=O)OC)C1c1ccccc1[N+](=O)[O-]
7.63		CC(C)(C)NCC(O)COc1cccc2c1CCCC2=O (configuration not stated)
8.07		CCN(CC)C(=O)c1ccc(O)c(OC)c1
5.49		CCN(CC)C(=O)c1cccnc1
	2.11	NC(=O)CC(N)C(=O)O (configuration not stated)
9.4		CC12C=CC(=O)C=C1CCC1C2C(=O)CC2(C)C1CCC2(O)C(=O)CO (configuration not stated)
9		CC(CCc1ccccc1)NCC(O)c1ccc(O)c(C(N)=O)c1 (configuration not stated)

LC retention time [1] [min]	LC retention time [2] [min]	Structure (SMILES)
15.7		CC(=O)OCC(=O)C12N=C(C)OC1CC1C3CCC4=CC(=O)C=CC4(C)C3C(O)CC12C (configuration not stated)
	30.1	C=C1CCCC2(C)CC3(O)OC(=O)C(C)=C3CC12 (configuration not stated)
9.53		CC(=O)Oc1c(C)cc(OCC(O)CNC(C)C)c(C)c1C (configuration not stated)
	2.73	Nc1ncnc2nc[nH]c12
15.4		COc1ccccc1OCCNCC(O)COc1cccc2[nH]c3ccccc3c12 (configuration not stated)
	2.21	C[n+]1cccc(C(=O)[O-])c1
17.2		CN(C)CCC=C1c2ccccc2CCc2ccccc21
5.43		Cc1cc(=O)n(-c2ccccc2)n1C
12.2		CC(C)(C#N)c1cc(Cn2cncn2)cc(C(C)(C)C#N)c1
5.15		CC(C)NCC(O)COc1cccc2[nH]ccc12 (configuration not stated)
9.66		NC(CC(O)COc1cccc2ccccc12)=NO (configuration not stated)
21.2		CCC(=C(c1ccccc1)c1ccc(OCCN(C)C)cc1)c1ccccc1
15.6		CNCCC=C1c2ccccc2CCc2ccccc21
8.15		CCN(CC)C(=O)Nc1ccc(OCC(O)CNC(C)(C)C)c(C(C)=O)c1 (configuration not stated)
4.97		CC(C)(C)NCC(O)COc1cccc2c1CC(O)C(O)C2 (configuration not stated)
7.05		CC(C)(C)NCC(O)COc1nsnc1N1CCOCC1 (configuration not stated)
6.51		Nc1nc(N)c2nc(-c3ccccc3)c(N)nc2n1
7.33		COCCc1ccc(OCC(O)CNC(C)C)cc1 (configuration not stated)
10.7		NC(=O)N1c2ccccc2C=Cc2ccccc21
21.2		CCC(C(=O)OCCN1CCOC(c2ccccc2)C1C)c1ccccc1 (configuration not stated)
6.13		CCCCCC(C)N (configuration not stated)
7.07		CCCC(=O)Nc1ccc(OCC(O)CNC(C)C)c(C(C)=O)c1 (configuration not stated)
9.1		Cc1cc(C)cc(NC(=O)Cc2ccc(OC(C)(C)C(=O)O)cc2)c1

Structure (SMILES)	LC retention time [1] [min]	LC retention time [2] [min]
COc1cccc(C2(O)CCCCC2CN(C)C)c1 (configuration not stated)	7.44	
COC12CCC3(CC1C(C)(O)C(C)(C)C)C1Cc4ccc(O)c5c4C3(CCN1CC1CC1)C2O5 (configuration not stated)	22.2	
CC(Cc1ccccc1)NCCn1cnc2c1c(=O)n(C)c(=O)n2C (configuration not stated)	8.9	
CC(C)=CCN1CCC2(C)c3cc(O)ccc3CC1C2C (configuration not stated)	9.19	
CNC(C)C(O)c1ccccc1 (configuration not stated)	2.75	
C1CCc2nnnn2CC1	2.93	
CN(C)C(=O)Oc1cc(OC(=O)N(C)C)cc(C(O)CNC(C)(C)C)c1 (configuration not stated)	8.28	
CNC(C)C(=O)c1ccc(C)cc1 (configuration not stated)	6.27	
CCNC1C2CCC(C2)C1c1ccccc1 (configuration not stated)	9.1	
CC(Cc1ccccc1)NCCC#N (configuration not stated)	8.95	
CC(N)C(=O)c1ccccc1 (configuration not stated)	8.59	
COc1ccc2c3c1OC1C(O)C=CC4C(C2)N(C)CCC341 (configuration not stated)	4.48	
CCC1(O)CCC2C3CCC4=CC(=O)CCC4=C3C=CC21CC (configuration not stated)	18.8	
COc1ccc2c(c1)C13CCCCC1C(C2)N(C)CC3 (configuration not stated)	11	
Cc1ccccc1CC(C)N (configuration not stated)	6.42	
CNC(C)C(=O)c1ccccc1 (configuration not stated)	2.99	
N=C1NC(=O)C(c2ccccc2)O1 (configuration not stated)	3.65	
CCC(=O)C(CC(C)N(C)C)(c1ccccc1)c1ccccc1 (configuration not stated)	16.5	
CNC(C)Cc1ccccc1OC (configuration not stated)	6.54	
COc1ccc2c3c1OC1C(=O)CCC4(O)C(C2)N(C)CCC314 (configuration not stated)	5.11	
CNC(C)CC1CCCCC1 (configuration not stated)	8.35	
CC(Cc1ccccc1)N(C)Cc1ccco1 (configuration not stated)	14.8	
CC(Cc1ccc(O)cc1)NCC(O)c1cc(O)cc(O)c1 (configuration not stated)	3.13	

Structure (SMILES)	LC retention time [1] [min]	LC retention time [2] [min]
CCNC(C)C(=O)c1ccc(C)cc1 (configuration not stated)	6.99	
CC1NCCOC1c1ccccc1 (configuration not stated)	4.89	
O=C1CC2OCC=C3CN4CCC56c7ccccc7N1C5C2C3CC46 (configuration not stated)	6.68	
CNC(C)Cc1ccccc1 (configuration not stated)	4.66	
CCOC(=O)C1(c2ccccc2)CCN(C)CC1	8.8	
CC(C(O)c1ccccc1)N(C)C (configuration not stated)	3.27	
C#CC1(O)CCC2C3CCC4=CC(=O)CCC4=C3C=CC21CC (configuration not stated)	17.5	
CC(N)Cc1ccc2c(c1)OCO2 (configuration not stated)	4.23	
CCCC(Cc1ccccc1)N1CCCC1 (configuration not stated)	9.51	
CCCCCc1cc(O)c2c(c1)OC(C)(C)C1CCC(C(=O)O)=CC21 (configuration not stated)	18.9	
CC(Cc1ccccc1)N(C)Cc1ccccc1 (configuration not stated)	17.8	
C#CCN(C)C(C)Cc1ccccc1 (configuration not stated)	15.1	
CNC(C)C(=O)c1ccc2c(c1)OCO2 (configuration not stated)	3.44	
CC(C)c1c(CN(C)C(C)Cc2ccccc2)n(C)n(-c2ccccc2)c1=O (configuration not stated)	21.3	
CNC(C)Cc1ccc2c(c1)OCO2 (configuration not stated)	5.12	
CC1C(c2ccccc2)OCCN1C (configuration not stated)	8.08	
CN1C2CCC1C(C(=O)O)C(OC(=O)c1ccccc1)C2 (configuration not stated)	4.81	
c1ccc(CN2CCNCC2)cc1	4.45	
CC(CN1CCOCC1)C(C(=O)N1CCCC1)(c1ccccc1)c1ccccc1 (configuration not stated)	19	
COC(=O)C1C(OC(=O)c2ccccc2)CC2CCC1N2C (configuration not stated)	8.59	
CC(N)Cc1ccccc1 (configuration not stated)	3.77	
CCCC(C(=O)c1ccc2c(c1)OCO2)N1CCCC1 (configuration not stated)	8.97	
CC(C)(N)Cc1ccccc1	4.37	
